Test system: PAF induced mortality
Test: Prevention of mortality induced by platelet aggregating factor (PAF)
Assay type: in vivo, mice (CF1)
Conditions: Mus musculus, Platelet; oral, PAF 0.10 mg/kg i.v.; read-out: oral ID50 (Inhibiting Dose), PAF induced mortality
Experimental: (k) Prevention of Mortality Induced by Platelet Aggregating Factor (PAF)
Male CF1 mice weighing 20-30 gms (Carworth Farms Co.) are fed ad libitum.
Racemic 2-[[[2-(acetyloxy)-3-(octadecyloxy)propoxy]hydroxyphosphinyl]oxy]-N,N,N-trimethylethanaminium hydroxide inner salt hemihydrate (PAF) is concentrated in ethanol at a concentration of 1 mg/ml.At the time of experimentation, PAF is diluted in 0.1% BSA (bovine serum albumin) and administered intravenously at a dose of 0.10 mg/kg one hour after 10 mice are dosed with either vehicle (BSA) or drug. Mortality in mice treated with PAF occurs within 30 minutes after i.v. administration.

CC(C)c1ccc2nc3ccc(C(=O)NCCCCCCn4ccnc4)cn3c(=O)c2c1 [Example 31, 2-(1-methylethyl)-N-[6-(1H-imidazol-1-yl)hexyl]-11-oxo-11H-pyrido[2,1-b]quinazoline-8-carboxamide]
ED50: 17 mg/kg

— US4551460A, “Pyrido[2,1-b]quinazoline derivatives useful as agents for treatment of allergic conditions and vascular disorders involving thrombosis” (priority 1983, dated 1985)
